BindingDB's records for patent US20240132473 (Shanghai Xunhe Pharmaceutical Technology Co., 2024)

Target: T1, Interleukin-1 receptor-associated kinase 4 (Homo sapiens, UniProt Q9NWZ3)
T1 sequence (Q9NWZ3 whole entry): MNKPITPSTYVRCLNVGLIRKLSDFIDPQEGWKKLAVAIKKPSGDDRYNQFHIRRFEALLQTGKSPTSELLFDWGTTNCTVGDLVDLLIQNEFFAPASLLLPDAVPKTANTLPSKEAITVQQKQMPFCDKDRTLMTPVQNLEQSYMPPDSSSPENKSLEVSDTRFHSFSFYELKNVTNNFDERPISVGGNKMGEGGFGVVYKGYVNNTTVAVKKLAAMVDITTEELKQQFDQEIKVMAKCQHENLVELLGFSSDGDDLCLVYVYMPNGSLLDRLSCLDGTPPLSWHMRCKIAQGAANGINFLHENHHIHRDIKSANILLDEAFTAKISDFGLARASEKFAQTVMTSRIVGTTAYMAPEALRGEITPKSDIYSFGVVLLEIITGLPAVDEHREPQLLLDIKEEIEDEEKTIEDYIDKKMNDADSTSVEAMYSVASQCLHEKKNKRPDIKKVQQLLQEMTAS
Assay: IRAK4 Kinase Inhibitory Activity Assay
Protocol: The inhibitory activity (IC50) of the compound on IRAK4 kinase under Km ATP was detected by mobility shift assay (MSA). Ten drug concentration gradients were set (initial concentration 1 μM, 3-fold dilution, 2 duplicate wells per concentration). […] After incubation at 28° C. for a period of time, 10 μL of termination buffer was added to terminate the reaction. The conversion rate data was read with Caliper, and then the conversion rate was converted into inhibition rate data. According to the inhibition rate data of each concentration, the IC50 of half inhibitory concentration was calculated by Logit method (Table 3).

IC50 [nM]	SMILES
152	CC(C)(O)c1cc2nn(CCS(C)(=N)=O)cc2cc1NC(=O)c1cccc(C(F)(F)F)n1 (configuration not stated) [US20240132473, Compound MY-004-102]
137	COc1cc2nn(CCS(C)(=N)=O)cc2cc1NC(=O)c1cccc(C(F)(F)F)n1 (configuration not stated) [US20240132473, Compound MY-004-103]
